Test results from patent US20060241083A1, “Novel heteroaryl phosphonates as cardioprotective agents” (Medicure International Inc., priority 2003, published 2006).

System: Male Wistar rats
Assay: Ischemia reperfusion: infarct size after LAD occlusion (25 min) and reperfusion (2 h) in anesthetised rats
Type: in vivo, rat
Conditions: 32 mg/kg i.v. bolus 5 min prior to ischemia; 25 min LAD occlusion, 2 h reperfusion; vs vehicle 56±3% of the AAR; P=0.047, unpaired Students t-test; FIG. 2
Experimental: Male Wistar rats (200-300 g, Tuck, Rayleigh, Essex, U.K.) were anesthetised with thiopentone sodium (Intraval®, 120 mg/kg i.p.; Rhone-Merrieux, Essex, U.K.). The rats were tracheotomised, intubated and ventilated with a Harvard ventilator (70 strokes/min, tidal volume: 8-10 mL/kg, inspiratory oxygen concentration: 30%). Body temperature was maintained at 38±1° C. The right carotid artery was cannulated and connected to a pressure transducer (MLT 1050, AD Instruments Ltd, Hastings, UK) to monitor mean arterial blood pressure (MAP) and heart rate (HR), which were continuously recorded on a data acquisition system such as Powerlab® Version 4.0.4, AD Instruments, Hastings, UK. The right jugular vein was cannulated for drug administration and the administration of Evans Blue dye (at the end of the experiment). A lateral thoracotomy was performed and the heart was suspended in a temporary pericardial cradle. A snare occluder was placed around the left anterior descending coronary artery (LAD). After completion of the surgical procedure the animals were allowed to stabilise for 30 min before LAD ligation. Five minutes prior to the onset of myocardial ischemia, a bolus injection (i.v.) of either vehicle or phosphonate was administered. The coronary artery was occluded at time 0 by tightening of the occluder. […]

For `Cc1nc(-c2ccccc2)c(C(F)P(=O)(O)O)c(CO)c1O` (stereo not shown) [Compound 38, [Fluoro-(5-hydroxy-4-hydroxymethyl-6-methyl-2-phenyl-pyridin-3-yl)-methyl]-phosphonic acid], the “myocardial infarct size (as a percentage of the weight of the AAR)” value was “reduced myocardial infarct size”.
